According to US8541243B2, “Method for assessment of folate phenotypes, disease risk and response to therapy” (The Trustees of the University of Pennsylvania, priority 2008, dated 2013):

Experiments:
[1] = Stability of folates under the acidic/basic conditions of sample work-up; type: physicochemical
Procedure: (§1) An aliquot of the resulting solution (50 μL) was then analyzed by LC-MRM/MS.
5-FTHF and 10-FTHF undergo dehydration to 5,10-MTHF under acidic conditions in a pH-dependent manner (FIG. 1). In contrast, under neutral or alkaline pH conditions, 5,10-MTHF is converted into 10-FTHF, which then slowly interconverts with 5-FTHF. These different forms of folate are present in RBCs primarily in polyglutamated forms. […] This made it difficult to reliably quantify the individual amounts of 5-FTHF, 10-FTHF, and 5,10-MTHF in the RBCs. Conversion of 5-FTHF and 10-FTHF into 5,10-MTHF proceeded quantitatively at pH 1.5. As a result, it was possible to accurately quantify the pool of folate precursors available for conversion into 5,10-METHF simply by acidifying the RBC extract (FIG. 1). […] They were then acidified to pH 1.5 with 1M HCl ready for analysis of the 5-METHF precursors as 5,10-MTHF (FIG. 1). The [^13C5]-5-FTHF internal standard was quantitatively converted into [^13C5]-5,10-MTHF, which made it possible to accurately quantify the amount of unlabeled 5-FTHF and 10-FTHF, as well as any 5,10-MTHF that had been present in the sample originally. […] However, it is so rapidly utilized in cellular processes by enzymes such as MTHFR, serine hydroxymethyltransferase, and thymidylate synthase (FIG. 6) that it is unlikely to be present in significant quantities.

RBC folate = RBC folate derivatives (LC-MRM/MS) before and after low dose MTX treatment of arthritis patients; type: in vivo, human; conditions: ratio, 24 wk of MTX, Caucasians, 115 pairs
Procedure: Eight calibration standards were prepared in the range 4.5 to 900 nmol/L in 1% ascorbic acid and 10 mM 2-mercaptoethanol (to prevent oxidation). To 500 μL of whole blood (1:10 diluted with 1% ascorbic acid) was added 20 μL of internal standard solution (150 pg/μL each of [^13C5]-FA, [^13C5]-THF, [^13C5]-5-MTHF, and [^13C5]-5-FTHF). For hydrolysis of folylpolyglutamates, 1N sodium hydroxide (6 μL) was added to each tube to adjust the pH to 5.0 and the samples were mixed immediately. In selected experiments, pteroylhepta-γ-L-glutamic acid (5 ng) was added to replicate […] RBC preparations from five different subjects in order to monitor the efficiency of folylpolyglutamate hydrolysis. […]
as §1
RBC folate concentrations were calculated according to the method of Lamers et al.(2006, Am. J. Clin. Nutr. 84(1):156-61): RBC folate={(whole blood folate×100)−[plasma folate×(100−hematocrit)]}/hematocrit.
Serum MCP-1 levels were measured using a human MCP-1 ELISA kit (BD Biosciences) according to the manufacturer's instructions. Total homocysteine (tHcy) and both plasma and red blood cell (RBC) folate derivatives were measured using stable isotope dilution liquid chromatography, multiple reaction monitoring, mass spectrometry (LC/MRM/MS) as described elsewhere herein. […]

plasma folate = assay: Plasma folates (LC-MRM/MS) before and after low dose MTX treatment of arthritis patients; type: in vivo, human; conditions: 24 wk of MTX, Caucasians, 119 pairs
Procedure: To each plasma sample (300 μL) was added water (200 μL) containing 1% ascorbic acid and 10 mM 2-mercaptoethanol. After the addition of 20 μL internal standard solution (150 pg/μL each of [^13C5]-FA, [^13C5]-THF, [^13C5]-5-MTHF, and [^13C5]-5-FTHF) the samples were thoroughly mixed. Water (1 mL) containing 1% ascorbic acid and 1% methanol was added prior to purification using SPE columns.
The following experiments were designed to assess the phenotypic changes elicited by low dose methotrexate (MTX) treatment. MTX has been widely used as the anti-inflammatory and immunomodulatory agent for the treatment of patients with rheumatoid arthritis and other inflammatory disorders by weekly low-dose (7.5-25 mg).
This indicates a quantitative and qualitative modification of folate phenotype (even though folic acid supplements were prescribed along with the MTX) that results in elevated MCP-1 concentrations (p<0.0001).

| Structure (SMILES) | Stability under both acidic and basic conditions [1] | RBC (5,10MT/5MTH) (mean ± SD) (RBC folate; baseline 0.026 ± 0.095) | RBC(THF/5MTH) (mean ± SD) (RBC folate; baseline 0.118 ± 0.387) | Plasma FA (mean ± SD) (plasma folate; baseline 7.10 ± 26.62, folic acid supplements prescribed along with MTX) | Plasma 5MTH (mean ± SD) (plasma folate; baseline 53.14 ± 31.14) |
| --- | --- | --- | --- | --- | --- |
| Nc1nc2c(c(=O)[nH]1)N1CN(c3ccc(C(=O)N[C@@H](CCC(=O)O)C(=O)O)cc3)CC1CN2 (some centres unmarked) [5,10-METHF, 5,10-methylenetetrahydrofolic acid] | extremely unstable | – | – | – | – |
| CN(Cc1cnc2nc(N)nc(N)c2n1)c1ccc(C(=O)N[C@@H](CCC(=O)O)C(=O)O)cc1 [MTX, methotrexate] | – | 0.051 ± 0.241 | 0.175 ± 0.757 | 36.20 ± 63.60 | 39.90 ± 31.51 |
